Test results reported in PubChem BioAssay (NCI).
Several values for one entry are separate records, joined by “and”; a condition that tells them apart may be missing. Identical values can stand only once.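 Five compound concentrations were applied to cells in 96-well plates for 48 hours; endpoints were derived by simple linear interpolation of the resulting dose-response curve. At the GI50, growth is halved. TGI is the concentration that stops growth completely.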

Columns and labels:
Test in all cases: NCI-60 cell line screen, 48 h
MALME-3M melanoma = test system: MALME-3M melanoma
A498 renal = test system: A498 renal
A549 NSCLC = test system: A549 NSCLC
SK-MEL-5 melanoma = test system: SK-MEL-5 melanoma
NCI-H460 lung = test system: NCI-H460 lung
UO-31 renal = test system: UO-31 renal
OVCAR-5 ovarian = test system: OVCAR-5 ovarian
NCI-H23 lung = test system: NCI-H23 lung
OVCAR-3 ovarian = test system: OVCAR-3 ovarian
KM12 colon = test system: KM12 colon

SMILES	GI50 (MALME-3M melanoma) [µM]	TGI (MALME-3M melanoma)	GI50 (A498 renal) [µM]	TGI (A498 renal) [µM]	GI50 (A549 NSCLC) [µM]	TGI (A549 NSCLC)	GI50 (SK-MEL-5 melanoma) [µM]	TGI (SK-MEL-5 melanoma)	GI50 (NCI-H460 lung) [µM]	TGI (NCI-H460 lung)	GI50 (UO-31 renal) [µM]	TGI (UO-31 renal)	GI50 (OVCAR-5 ovarian) [µM]	TGI (OVCAR-5 ovarian)	GI50 (NCI-H23 lung) [µM]	TGI (NCI-H23 lung)	GI50 (OVCAR-3 ovarian) [µM]	TGI (OVCAR-3 ovarian)	GI50 (KM12 colon) [µM]	TGI (KM12 colon)
C[C@H](Nc1ccc(C#N)n(C)c1=O)c1cc2cc(Cl)ccc2[nH]c1=O	25.3	> 100 µM	20.4	92.2	24.3	> 100 µM	15.6	29.1 µM	32.8	> 100 µM	17.6	> 100 µM	66.6	> 100 µM	35.4	> 100 µM	24.1	> 100 µM	38.3	> 100 µM
NC(CCc1ccccc1)(C(=O)O)c1ccccc1 (configuration not stated)	–	> 100 µM	–	> 100	–	> 100 µM	–	> 100 µM	–	> 100 µM	–	> 100 µM	–	> 100 µM	–	> 100 µM	–	> 100 µM	–	> 100 µM
Cc1cc(N2CCOCC2)nc(N(CCCNc2ccnc3cc(Cl)ccc23)Cc2ccc3c(c2)OCO3)n1	–	–	1.51	3.42	1.61	3.12 µM	1.54	2.88 µM	1.45	2.99 µM	–	–	–	–	–	–	0.253	0.738 µM	–	–
Cn1c2c(c3c(=O)[nH]ncc31)CCc1ccccc1-2	–	88.5 µM	–	45.7	–	> 100 µM	–	35.1 µM	–	33.6 µM	–	59.1 µM	–	> 100 µM	–	71.4 µM	–	72.2 µM	–	54.9 µM
CN(C)C/C=C(/c1ccc(Br)cc1)c1cccnc1	–	44.1 µM	–	57.8	–	> 100 µM	–	45.5 µM	–	> 100 µM	–	> 100 µM	–	> 100 µM	–	> 100 µM	–	> 100 µM	–	> 100 µM
CC(C)c1ccc2c(c1)[C@@]1(C)CC[C@H](C)C(C)(C)C1CC2 (some centres not stated)	–	37 µM	–	34.9	–	32.1 µM	–	41.4 µM	–	36.9 µM	–	> 100 µM	–	52.6 µM	–	35.6 µM	–	63 µM	–	38.4 µM
NCCCCN	–	> 100 µM	–	> 100	–	> 100 µM	–	> 100 µM	–	> 100 µM	–	> 100 µM	–	> 100 µM	–	> 100 µM	–	> 100 µM	–	38.6 µM
CCCCCCOC(=O)C(N)Cc1ccc(OC)cc1 (configuration not stated)	–	> 100 µM	–	–	–	> 100 µM	–	> 100 µM	–	> 100 µM	–	> 100 µM	–	> 100 µM	–	> 100 µM	–	> 100 µM	–	> 100 µM
COc1cccc(/C=N/[N-]C(N)=O)c1[O-].[Cu+2].[OH3+].c1cnc2c(c1)ccc1cccnc12	–	33.3 µM	–	21.8	–	28.7 µM	–	16.1 µM	–	79.9 µM	–	38.2 µM	–	> 100 µM	–	15.8 µM	–	36.1 µM	–	47.1 µM
CC(Br)C(=O)c1ccc2cc(Br)c3ccccc3c2c1 (configuration not stated)	–	28.8 µM	–	33.1	–	39.1 µM	–	27.3 µM	–	30.9 µM	–	32 µM	–	31.4 µM	–	29.7 µM	–	26.6 µM	–	32.5 µM
CC(C)(C)c1ccc(O)c(Br)c1	–	> 100 µM	–	> 100	–	> 100 µM	–	> 100 µM	–	> 100 µM	–	> 100 µM	–	> 100 µM	–	> 100 µM	–	> 100 µM	–	> 100 µM
O=P(O)(O)OP(=O)(O)O	–	> 100 µM	–	> 100	–	> 100 µM	–	> 100 µM	–	> 100 µM	–	> 100 µM	–	> 100 µM	–	> 100 µM	–	> 100 µM	–	> 100 µM
O=S1c2ccccc2N=C(c2ccc3ccccc3c2)CC1c1ccccc1 (configuration not stated)	–	–	–	35.9	–	41.3 µM	–	> 100 µM	–	41 µM	–	32.4 µM	–	42.9 µM	–	39 µM	–	–	–	28.8 µM
C/C(=C\CNc1ncnc2nc(Cl)[nH]c12)CO	–	> 100 µM	–	> 100	–	> 100 µM	–	> 100 µM	–	> 100 µM	–	> 100 µM	–	> 100 µM	–	> 100 µM	–	> 100 µM	–	> 100 µM
COC(=O)c1c(O)ccc2c1c1c(n2Cc2ccccn2)C(=O)c2ccccc2C1	–	> 100 µM	–	> 100	–	> 100 µM	–	> 100 µM	–	> 100 µM	–	> 100 µM	–	> 100 µM	–	> 100 µM	–	> 100 µM	–	> 100 µM
Fc1cc(C2=C[C@H](c3ccc4c(c3)OCO4)NC(=S)N2)c(Cl)cc1Cl	–	95.4 µM	–	79	–	> 100 µM	–	25.9 µM	–	> 100 µM	–	> 100 µM	–	> 100 µM	–	> 100 µM	–	> 100 µM	–	> 100 µM
CCOC(=O)C(=CNC(Cc1c[nH]c2ccccc12)C(=O)OC)C(=O)OCC (configuration not stated)	–	> 100 µM	–	> 100	–	–	–	> 100 µM	–	> 100 µM	–	> 100 µM	–	–	–	> 100 µM	–	> 100 µM	–	–
COC(=N)C(C)C	–	> 100 µM	–	–	–	> 100 µM	–	> 100 µM	–	> 100 µM	–	> 100 µM	–	> 100 µM	–	> 100 µM	–	> 100 µM	–	> 100 µM
CCOC(=O)C(C)OC(=O)c1ccc(C)cc1 (configuration not stated)	–	> 100 µM	–	> 100	–	> 100 µM	–	> 100 µM	–	> 100 µM	–	> 100 µM	–	> 100 µM	–	> 100 µM	–	> 100 µM	–	> 100 µM
Clc1ccc(NCc2nnc(COc3ccc(OCc4nnc(CNc5ccc(Cl)cc5)o4)c(Cl)c3)o2)cc1	–	> 100 µM	–	> 100	–	> 100 µM	–	53.6 µM	–	> 100 µM	–	> 100 µM	–	> 100 µM	–	> 100 µM	–	93.5 µM	–	> 100 µM
O=C(CSc1nc2ccc(Cl)cc2c(=O)n1-c1ccccc1)N=Nc1c(O)[nH]c2ccc(F)cc12	–	11.6 µM	–	9.8	–	5.42 µM	–	10.3 µM	–	9.77 µM	–	0.411 µM	–	9.01 µM	–	7.57 µM	–	4 µM	–	11.8 µM
COC1OC(C(=O)CP(=O)(OC)OC)C(OCc2ccccc2)C(OCc2ccccc2)C1OCc1ccccc1 (configuration not stated)	–	32.4 µM and 34.5 µM	–	27.1	–	31.2 µM and 31.9 µM	–	28.6 µM and 28.7 µM	–	31.1 µM and 29.4 µM	–	30.9 µM and 23.5 µM	–	29.2 µM and 31.8 µM	–	30.3 µM and 32.9 µM	–	30.3 µM and 28.7 µM	–	36.6 µM and 35.7 µM
COc1cc(S(=O)(=O)N/N=C/C=C/c2ccccc2)c(OC)cc1NC(C)=O	–	> 100 µM	–	> 100	–	> 100 µM	–	33.3 µM	–	–	–	> 100 µM	–	> 100 µM	–	> 100 µM	–	> 100 µM	–	> 100 µM
CC(C)(C)OC(=O)N1C(C2=COc3ccccc3O2)=COc2cccnc21	–	2.76 µM	–	3.32	–	4.38 µM	–	3.17 µM	–	3.67 µM	–	3.1 µM	–	3.4 µM	–	3.25 µM	–	3.31 µM	–	3.97 µM
O=c1oc2c(ccc3occc32)c(N2CCCCC2)c1-c1ccccc1	–	> 100 µM	–	> 100	–	> 100 µM	–	> 100 µM	–	> 100 µM	–	> 30.3 µM	–	> 100 µM	–	> 100 µM	–	> 100 µM	–	> 100 µM
